Here are results for 45 compounds from patent publication US6284768A, “Src family SH2 domain inhibitors” (Boehringer Ingelheim Pharmaceuticals, Inc., priority 1999, dated 2001).

Each structure is given as a SMILES string.

In the first assay the target is T1, p56lck GST-SH2 (lck SH2 domain) (Homo sapiens, UniProt P06239).
T1 construct: GST (N)
T1 sequence (P06239 127-224 limits assumed): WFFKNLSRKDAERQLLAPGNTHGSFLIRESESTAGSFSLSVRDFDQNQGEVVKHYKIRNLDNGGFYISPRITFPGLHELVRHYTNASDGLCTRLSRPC
The assay can be described thus: Receptor-ligand equilibrium binding constants by surface plasmon resonance (biosensor), lck SH2 domain. The conditions noted are these: Table 1, compounds of formula (II). The method, then:
The general methods for the determination of Receptor-Ligand Kinetic and Equilibrium Binding Constants using Surface Plasmon Resonance as applied to the lck SH2 Domain have been described in: M. M. Morelock, R. H. Ingraham, R. Betageri.
General Biosensor Methods.
The mobile phase buffer, 10 mM HEPES, pH 7.4, 150 mM NaCl, and 0.05% P-20, was maintained at a flow rate of 5 μL/min in all experiments. All buffers and protein solutions were filtered through a 0.2 um filter and degassed immediately before use.
Strepavidin was diluted to 0.25 mg/ml in 20 mM NaOAc buffer, pH 4.5 and immobilized by free amine coupling to approximately 3000 RU for all 4 flow cells from a single sensor chip .
Surface Kd Determinations.
The surface was regenerated by 4μL of 20 mM HCl followed by 4 μL of 150 mM Tris base. The values used in the analysis were the equilibrium plateau values from which the sample refractive index has been subtracted. For the data analyzed for linear function the equilibrium plateau values without the sample refractive index subtracted were used. Free solution Kd determinations. In a 96 well microtiter plate 20 nM SH2 domain suspended in running buffer containing 0.2 mg/ml BSA and 1 mM DT'T was distributed in 100 μL per well. The highest concentration of compound tested was added to the last well and titrated with 2 fold dilutions for a final of 10 concentrations to be run. 25 μL of the mixture was injected over a strepavidin-biotin-ε-aminohexanoic acid-EGQpYEEIPIA surface and regenerated with 4 μL of 20 mM HCl. […], of 150 mM Tris base was injected after every 11 samples. Typically 8 assays were run in an overnight programmed run.
`COc1ccc(Cn2ccc(C)c(NC(=O)[C@H](Cc3ccc(CC(=O)O)cc3)NC(=O)Cc3cccc4ccccc34)c2=O)cc1` [Compound 88] displayed a Kd of 4.4 µM.

As for `COc1ccc(Cn2cc(Br)c(C)c(NC(=O)[C@H](Cc3ccc(-n4nnc(C(=O)O)c4C(=O)O)cc3)NC(=O)Cc3ccc4ccccc4c3)c2=O)cc1` [Compound 241, 3-[2'-(S)-(2""-Naphthylacetyl)amino-3'-[4"-(4'",5'"-dicarboxytriazolyl)]benzene]propanoylamino-1-(4-methoxybenzyl)-5-bromo-4-methyl-2-pyridone], the Kd was found to be 0.06 µM.

`COc1ccc(Cn2ccc(C)c(NC(=O)[C@H](Cc3ccc(CC(=O)O)cc3)NC(=O)Cc3cc4ccccc4cc3C)c2=O)cc1` [Compound 60] came in with a Kd of 1.9 µM.

In the case of `Cc1ccn(Cc2ccccc2)c(=O)c1NC(=O)C(Cc1ccc(C(C)(C)C(=O)O)cc1)NC(=O)Cc1ccc2ccccc2c1` (stereo not drawn) [Compound 198], the Kd was determined as 2.5 µM.

For the compound `COc1ccc(Cn2ccc(C)c(NC(=O)[C@H](Cc3ccc(NC(=O)C(=O)O)cc3)NC(=O)Cc3cccc([N+](=O)[O-])c3)c2=O)cc1` [Compound 105], binding was put at a Kd of 0.82 µM.

`COc1ccc(Cn2ccc(C)c(NC(=O)[C@H](Cc3ccc(CC(=O)O)cc3)NC(=O)COc3ccc4ccccc4c3)c2=O)cc1` [Compound 166]: binding was characterised by a dissociation constant (Kd) of 1.7 µM.

`COC1CCC(Cn2ccc(C)c(NC(=O)C(Cc3ccc(C(C)(C)C(=O)O)cc3)NC(=O)Cc3ccc4ccccc4c3)c2=O)CC1` (stereo not drawn) [Compound 239]: binding was characterised by a dissociation constant (Kd) of 3.2 µM.

On to `Cc1ccn(CC=CCC2CCCCC2)c(=O)c1NC(=O)[C@H](Cc1ccc(CC(=O)O)cc1)NC(=O)Cc1cccc2ccccc12` [Compound 12], for which the Kd is > 250 µM.

The compound `Cc1ccn(CCCCC(C)C)c(=O)c1NC(=O)C(Cc1ccc(C(C)(C)C(=O)O)cc1)NC(=O)OCc1ccccc1` (racemic) [Compound 146, 3-[2'-(R,S)-Benyloxycarbonylamino-3'-[4"-(1'"-carboxy-1'"-methyl)ethyl]benzene]propanoylamino-1-(5-methylhexyl)-4-methyl-2-pyridone] registered a Kd of 13 µM.

With `COc1ccc(Cn2ccc(C)c(NC(=O)C(Cc3ccc(C(C)(C)C(=O)O)cc3)NC(=O)C(F)(F)F)c2=O)cc1` (stereo not drawn) [Compound 176], binding was put at a Kd of 1.8 µM.

With `Cc1ccn(Cc2ccccn2)c(=O)c1NC(=O)[C@H](Cc1ccc(CC(=O)O)cc1)NC(=O)Cc1cccc2ccccc12` [Compound 23], binding was put at a Kd of 55.7 µM.

Regarding `Cc1ccn(CC2CCCCC2)c(=O)c1NC(=O)[C@H](Cc1ccc(CC(=O)O)cc1)NC(=O)C(C)(C)C` [Compound 67], binding was put at a Kd of 64 µM.

On to `COc1ccc(Cn2ccc(C)c(NC(=O)[C@H](Cc3ccc(CC(=O)O)cc3)NC(=O)C3(c4ccccc4)CCCC3)c2=O)cc1` [Compound 78], for which binding was characterised by a dissociation constant (Kd) of 13 µM.

On to `CCCCCn1ccc(C)c(NC(=O)[C@H](Cc2ccc(CC(=O)O)cc2)NC(=O)C(C)(C)C)c1=O` [Compound 69], for which the Kd was found to be 89 µM.

For the compound `COc1ccc(Cn2ccc(C)c(NC(=O)[C@H](Cc3ccc(NC(=O)C(=O)O)cc3)NC(C)=O)c2=O)cc1` [Compound 6], binding was put at a Kd of 8.3 µM.

With `Cc1ccn(CC2CCCCC2)c(=O)c1NC(=O)[C@H](Cc1ccc(CC(=O)O)cc1)NC(=O)Cc1cccc2ccccc12` [Compound 68], the Kd came out at 12 µM.

Compound `COc1ccc(Cn2ccc(C)c(NC(=O)[C@H](Cc3ccc(C(C)(C)C(=O)O)cc3)NC(=O)Cc3ccccc3)c2=O)cc1` [Compound 120] displayed a Kd of 0.43 µM.

The compound `CCN(CC)c1ccc(CC(=O)N[C@@H](Cc2ccc(NC(=O)C(=O)O)cc2)C(=O)Nc2c(C)ccn(Cc3ccc(OC)cc3)c2=O)cc1` [Compound 40] registered a Kd of 1.9 µM.

The compound `COc1ccc(Cn2ccc(C)c(NC(=O)[C@H](Cc3ccc(NC(=O)C(=O)O)cc3)NC(=O)Cc3c[nH]c4ccc(O)cc34)c2=O)cc1` [Compound 27] gave a Kd of 2.5 µM.

`COc1ccc(Cn2ccc(C)c(NC(=O)[C@H](Cc3ccc(CC(=O)O)cc3)NC(=O)Cc3ccc4ccccc4c3)c2=O)cc1` [Compound 59, 3-[2'-(S)-(2'"-Naphthylacetyl)amino-3'-(4"-carboxymethyl)benzene]propanoylamino-1-(4-methoxybenzyl)-4-methyl-2-pyridone] registered a Kd of 1.5 µM.

The compound `COc1ccc(Cn2cc(Br)c(C)c(NC(=O)[C@H](Cc3ccc(C(C)(C)C(=O)O)cc3)NC(=O)C(C)(C)c3ccc(C(F)(F)F)cc3)c2=O)cc1` [Compound 227] had a Kd of 0.37 µM.

Consider `COc1ccc(Cn2ccc(C)c(NC(=O)[C@H](Cc3ccc(NC(=O)C(=O)O)cc3)NC(=O)Cc3ccc(-n4c(C)ccc4C)cc3)c2=O)cc1` [Compound 39], for which binding was put at a Kd of 2.3 µM.

Compound `COc1ccc(Cn2ccc(C)c(NC(=O)[C@H](Cc3ccc(C(C)(C)C(=O)O)cc3)NC(=O)Cc3ccc(C)cc3)c2=O)cc1` [Compound 114] returned a Kd of 0.19 µM.

Take `COc1ccc(Cn2ccc(C)c(NC(=O)[C@H](Cc3ccc(CC(=O)O)cc3)NC(=O)OCc3ccccc3)c2=O)cc1` [Compound 57]: the affinity, expressed as Kd, was 15 µM.

For `CCCCCCn1ccc(C)c(NC(=O)C(Cc2ccc(C(C)(C)C(=O)O)cc2)NC(=O)CCc2ccccc2)c1=O` (stereo not drawn) [Compound 204], the Kd came to 10 µM.

Compound `COCCOCn1ccc(C)c(NC(=O)C(Cc2ccc(C(C)(C)C(=O)O)cc2)NC(=O)Cc2ccc3ccccc3c2)c1=O` (stereo not drawn) [Compound 189] registered a Kd of 13 µM.

For the compound `Cc1ccn(Cc2ccc(OC(F)(F)F)cc2)c(=O)c1NC(=O)[C@H](Cc1ccc(CC(=O)O)cc1)NC(=O)Cc1cccc2ccccc12` [Compound 53, 3-[2'-(S)-(1'"-Naphthyl)acetlyamino-3'-(4"-carboxymethyl)benzene]propanoylamino-1-(4-trifluoromethoxybenzyl)-4-methyl-2-pyridone], the Kd was determined as 12.7 µM.

The compound `COc1ccc(Cn2ccc(C)c(NC(=O)[C@H](Cc3ccc(C(C)(C)C(=O)O)cc3)NC(=O)[C@@H](C)c3cccc4ccccc34)c2=O)cc1` [Compound 45] displayed a Kd of 3.4 µM.

Consider `COCCOCCn1ccc(C)c(NC(=O)C(Cc2ccc(C(C)(C)C(=O)O)cc2)NC(=O)C(C)(C)c2ccc3ccccc3c2)c1=O` (stereo not drawn) [Compound 144], for which binding was characterised by a dissociation constant (Kd) of 20 µM.

`Cc1ccn(Cc2ccc(C(C)C)cc2)c(=O)c1NC(=O)[C@H](Cc1ccc(N(O)C(=O)C(=O)O)cc1)NC(=O)Cc1ccc(N(C)C)cc1` [Compound 96] registered a Kd of 23 µM.

`COc1ccc(Cn2ccc(C)c(NC(=O)[C@H](Cc3ccc(NC(=O)C(=O)O)cc3)NC(=O)Nc3ccc(C(C)C)cc3)c2=O)cc1` [Compound 103] gave a Kd of 12 µM.

`COc1ccc(Cn2ccc(C)c(NC(=O)[C@H](Cc3ccc(NC(=O)C(=O)O)cc3)NC(=O)Cc3c(C)[nH]c4ccccc34)c2=O)cc1` [Compound 28] displayed a Kd of 1.1 µM.

Take `CCC(=O)N[C@@H](Cc1ccc(CC(=O)O)cc1)C(=O)Nc1c(C)ccn(Cc2ccc(OC)cc2)c1=O` [Compound 74]: the Kd came out at 14 µM.

Turning to `COc1cccc(Cn2ccc(C)c(NC(=O)[C@H](Cc3ccc(CC(=O)O)cc3)NC(=O)Cc3cccc4ccccc34)c2=O)c1` [Compound 20], the Kd was 19.4 µM.

For the compound `COc1ccc(Cn2ccc(C)c(NC(=O)[C@H](Cc3ccc(N(O)C(=O)C(=O)O)cc3)NC(=O)Cc3c[nH]c4ccccc34)c2=O)cc1` [Compound 24], the Kd was found to be 2.9 µM.

On to `COc1ccc(Cn2ccc(C)c(NC(=O)[C@H](Cc3ccc(NC(=O)C(=O)O)cc3)NC(=O)Nc3nc4ccccc4s3)c2=O)cc1` [Compound 7], for which the equilibrium dissociation constant (Kd) is > 11 µM.

In turn, `COc1ccc(Cn2ccc(C)c(NC(=O)[C@H](Cc3ccc(N(O)C(=O)C(=O)O)cc3)NC(=O)Cc3ccc(N(C)C)cc3)c2=O)cc1` [Compound 26] displayed a Kd of 4.3 µM.

With `COc1ccc(Cn2ccc(C)c(NC(=O)[C@H](Cc3ccc(NC(=O)C(=O)O)cc3)NC(=O)Cc3sc(N)nc3-c3ccccc3)c2=O)cc1` [Compound 11], the affinity, expressed as Kd, was 2.9 µM.

`COc1ccc(Cn2ccc(C)c(NC(=O)[C@H](Cc3ccc(C(C)(C)C(=O)O)cc3)NC(=O)Cc3ccc(Br)cc3)c2=O)cc1` [Compound 110] returned a Kd of 0.18 µM.

`COc1ccc(Cn2ccc(C)c(NC(=O)C(Cc3ccc(C(C)(C)C(=O)O)cc3)NC(=O)C(C)(C)c3ccc4ccccc4c3)c2=O)cc1O` (stereo not drawn) [Compound 232] registered a Kd of 33 µM.

In turn, `COCCCCn1ccc(C)c(NC(=O)C(Cc2ccc(C(C)(C)C(=O)O)cc2)NC(=O)C(C)(C)c2ccc3ccccc3c2)c1=O` (stereo not drawn) [Compound 236] registered a Kd of 1.4 µM.

Turning to `Cc1ccn(Cc2ccoc2)c(=O)c1NC(=O)C(Cc1ccc(C(C)(C)C(=O)O)cc1)NC(=O)C(C)(C)c1ccc2ccccc2c1` (stereo not drawn) [Compound 203], binding was characterised by a dissociation constant (Kd) of 11 µM.

Regarding `COc1ccc(Cn2ccc(C)c(NC(=O)C(Cc3ccc(C(C)(C)C(=O)O)cc3)NC(=O)C(C)(C)C)c2=O)cc1` (stereo not drawn) [Compound 171], binding was put at a Kd of 4.3 µM.

Consider `Cc1ccn(CCc2ccccc2)c(=O)c1NC(=O)[C@H](Cc1ccc(CC(=O)O)cc1)NC(=O)Cc1cccc2ccccc12` [Compound 21], for which the Kd was 30.5 µM.

Staying with this assay, now noted: Table 2, compounds of formula (III).
Consider `COc1ccc(Cn2nc(C)c(C)c(NC(=O)[C@H](Cc3ccc(CC(=O)O)cc3)NC(=O)Cc3cccc4ccccc34)c2=O)cc1` [Compound 244], for which binding was characterised by a dissociation constant (Kd) of 6 µM.
